One substance from US8895522B2, “Composition and method for the prevention, treatment and/or alleviation of an inflammatory disease” (Index Pharmaceuticals AB, priority 2005, dated 2014) can be followed below.

In the oligonucleotide strings, read from the 5' end, every base follows the letter of its sugar. An asterisk marks phosphorothioate; unmarked linkages are phosphodiester. Other units and linkages are bracketed, terminal groups are in braces. A string of capitals states the bases alone. d = 2'-deoxy (DNA)

For data set [1], the system named is steroid refractory/dependent IBD patients (ulcerative colitis and Crohn's disease). Kind of data set: Human pilot proof of concept study in steroid resistant/dependent patients. Format: in vivo. The note with it: for Clinical response at week 1, responders: 5/7 patients, on concomitant steroid therapies. As for the experimental part: A small pilot study was conducted in steroid refractory/dependent IBD patients with the following objectives.
Primary objective: To assess the safety issues regarding the use of the DNA based oligonucleotide denoted as SEQ.ID.NO.1 in ulcerative colitis and Crohn's disease patients.
Secondary objective: To explore the clinical efficacy as determined by endoscopic and clinical remission/improvement rates, histological improvement and changes in clinical laboratory parameters.
The study was placebo controlled; double blinded single dose and considered patients that were unresponsive to corticosteroids or corticosteroid dependent who where on concomitant steroid therapies.
Doses levels used were 3 mg and 30 mg given as a single rectal administration

Data set [2] deals with patients with mild to moderately active ulcerative colitis. Kind of data set: Clinical phase II study in ulcerative colitis patients. The settings on record: for Clinical response at Week 1: No, n (%) / Clinical response at Week 1: Yes, n (%): single rectal dose, ITT/Safety population; for clinical response rate at week 1, all receiving active drug: all four dose levels pooled (26/119). The format is in vivo, human. As for the experimental part: A large 150 patient study performed in ulcerative colitis patients who were neither on concomitant steroid therapies nor were described as being steroid refractory/dependent.
Primary objective: To evaluate the ability of each of the four dose levels (0.3 mg, 3 mg, 30 mg and 100 mg) of oligonucleotide SEQ.ID.NO.1 as an anti-inflammatory therapy to induce clinical remission in patients with mild to moderately active ulcerative colitis (UC), as compared with placebo.
Secondary objective: To assess the tolerability of single rectal doses of SEQ.ID.NO.1 oligonucleotide and to further evaluate the efficacy and safety of SEQ.ID.NO.1 oligonucleotide at four dose levels and to assess the pharmacokinetics of SEQ.ID.NO.1 oligonucleotide after rectal administration, as compared to placebo.

Data set [3] concerns human PBMC. Briefly: Induction of IFN-gamma from healthy human PBMC (ELISpot). The format is cell-based. The settings on record: PBMC from 7 healthy individuals, 48 hours, FIG. 12. How it is done:
(§1) Whole blood was obtained from healthy blood donors. PBMCs were prepared from 30 ml whole blood according to the following protocol:
(§2) 30 ml blood was transferred directly into heparinized tubes. All blood was transferred into one 50 ml Falcon tube and PBS added up to 50 ml. 15 ml Ficoll (17-1440-03, obtained from Amersham Bioscience AB, Uppsala) was then added into two falcon tubes (50 ml). The PBS-treated blood was then carefully added on the top of to Ficoll, 25 ml to each tube. The tubes were then centrifuged 25 min at 1700 RPM at RT (20° C.).
RPMIc medium was prepared under sterile conditions, using a 0.22 uM filter. (RPMIc denotes a RPMI 1640 culture medium (R0883, Sigma) supplemented with 5% heat-inactivated (56° C.,1 h) FCS 1.5 mM L-glutamine (G7513, Sigma), 100 U/ml penicillin and 100 ug/ml streptomycin, PEST (P0781, Sigma), hepes (H0887, Sigma), and gentamycin (G1272, Sigma)). […]
The cells were counted and left in PBS, then centrifuged at 1200 RPM, 10 min. Medium was then added to obtain the concentration of interest, and the cells counted (16 squares)×3. The mean value was calculated and multiplied with the dilution factor×10^4=cells/ml. […]
Elispot assays where performed according to the manufactures recommended guidelines (MabTech) and the plates were analyzed using an AID ELISpot reader system (Autoimmun Diagnostika GmbH, Strassberg, Germany). […]

Data set [4] deals with human PBMC. Kind of data set: Induction of IFN-alpha from healthy human PBMC (ELISpot). The note with it: PBMC from 10 healthy individuals, 48 hours. Format: cell-based. As for the experimental part: as §1, §2
RPMIc medium was prepared under sterile conditions, using a 0.22 uM filter. (RPMIc denotes a RPMI 1640 culture medium (R0883, Sigma) supplemented with 5% heat-inactivated (56° C.,1 h) FCS 1.5 mM L-glutamine (G7513, Sigma), 100 U/ml penicillin and 100 ug/ml streptomycin, PEST (P0781, Sigma), hepes (H0887, Sigma), and gentamycin (G1272, Sigma)).
The interphase was carefully pipetted from the two tubes into 2x 50mi Falcon tubes. PBS was added up to 50 ml in each tube, and the tubes centrifuged for 10 min at 1700 RPM (4° C.).
The supernatant was discarded, and PBS added to 30 ml, whereupon the tubes were centrifuged at 10 min at 1500 RPM (4° C.). Again, the supernatant was discarded, 10 ml PBS added, and the pellets from the two falcon tubes pooled.
The cells were counted and left in PBS, then centrifuged at 1200 RPM, 10 min. Medium was then added to obtain the concentration of interest, and the cells counted (16 squares)×3. The mean value was calculated and multiplied with the dilution factor×10^4=cells/ml. Diluting the cells to 10 million/ml will result in 500.000 cells/50 ul medium, 6 million/ml will be 300.000/50 ul medium.
Elispot assays where performed according to the manufactures recommended guidelines (MabTech) and the plates were analyzed using an AID ELISpot reader system (Autoimmun Diagnostika GmbH, Strassberg, Germany).
For this assay again 500,000 PBMC cells per well, derived from healthy human blood were incubated for 48 hours in the presence of the different oligonucleotides. Specifically, SEQ.ID.NO 1, SEQ.ID.NO 2, and SEQ.ID.NO 8. Following incubation, the wells were developed according to the kit suppliers recommendations and the average number of positive cells producing IFN-alpha per well were determined using an AID ELISpot reader.

Where [5] appears, read: single rectal administration 3 mg or 30 mg.

Take “5′-G*G*A*ACAGTTCGTCCAT*G*G*C-3′ (DNA dG*dG*dA*dAdCdAdGdTdTdCdGdTdCdCdAdT*dG*dG*dC) [SEQ.ID.NO 1, (Hu p65)AS, CpG-containing ODN; * marks phosphorothioate linkage, others phosphodiester]”: the “time to response of responding patients” value in data set [1] (after single rectal administration) was “within a week”. The “patients still in remission and steroid free” value in data set [1] (of the 7 patients that received the drug) is “two from the 7 patients”. Further, the serious adverse events result in data set [1] (setting [5]) is recorded as “no serious adverse events were recorded”. For the same substance, the “Clinical response at week 1, responders” value in data set [1] (setting [5]) stood at 71%; in data set [1] (single rectal administration 3 mg or 30 mg, listed as Active) it was 71%. The efficacy entry in data set [1] (single rectal administration, 3 mg and 30 mg dose groups) is on record as “good efficacy in both dose groups”. For the same substance, the “Clinical response at Week 1: No, n (%)” value in data set [2] (0.3 mg (N = 31)) was 23 (74.2) n (%); in data set [2] (3 mg (N = 29)), 23 (79.3) n (%); in data set [2] (30 mg (N = 30)), 23 (76.7) n (%); in data set [2] (100 mg (N = 29)), 24 (82.8) n (%). Besides, the “Clinical response at Week 1: Yes, n (%)” value in data set [2] (0.3 mg (N = 31)) is 8 (25.8) n (%); in data set [2] (3 mg (N = 29)), 6 (20.7) n (%); in data set [2] (30 mg (N = 30)) it was 7 (23.3) n (%); in data set [2] (100 mg (N = 29)) it was 5 (17.2) n (%). Further, the “clinical response rate at week 1, all receiving active drug” value in data set [2] and in data set [2] (listed as Active) was 22% in each case. Further, the “induction of clinical, endoscopic or histopathological remissions or responses” value in data set [2] (one single dose from 0.3 to 100 mg, over a 12 week period) is recorded as “could not confirm”. The safety profile entry in data set [2] (single rectal doses 0.3 to 100 mg) was “good safety profile”. For the same substance, the “concentration at which induction of IFN-gamma becomes apparent” value in data set [3] was “around 25 uM”. In data set [4], the “concentration at which induction of IFN-alpha starts / is apparent” value is 1 µM. In addition, the “induction of IFN-alpha producing cells” value in data set [4] (FIG. 13) was “clear inducing potential”.
